Data on seven molecules can be found in publication PMC11443518, “Undescribed Amaryllidaceae Alkaloids from Zephyranthes citrina and Their Cytotoxicity” (Journal of Natural Products, 2024).

SMILES strings stand for the structures. Where two headings read alike, the source gives them in different places.

For experiment [1], the system named is nine human tumor and one nontumor cell lines. In words: Cytotoxicity screening across the whole panel of cell lines. It counts as cell-based. The note with it: Homo sapiens, read-out: GP value across the tested cell lines. From the text:
Concerning the cytotoxicity of alkaloids isolated from Z. citrina, initially, Prakash and Vedanayaki investigated the MeOH extract of the bulbs for its in vitro cytotoxic activity using the MTT assay against three human cancer cell lines from different tissue origins: cervical cancer (HeLa), breast cancer (MCF-7), and oral squamous carcinoma (SCC-9). […] In this context, and to assess potential negative effects on human cell cultures, compounds 1, and 3–27 were screened in our study for cytotoxicity using a 10 μM single-dose regimen. The results were compared with those using the clinically approved antineoplastic agent doxorubicin at 1 μM. The effect on cell growth was investigated on nine human tumor and one nontumor cell lines, namely Jurkat (acute T-cell leukemia), MOLT-4 (acute lymphoblastic leukemia), A549 (lung carcinoma), HT-29 (colorectal adenocarcinoma), PANC-1 (pancreas epithelioid carcinoma), A2780 (ovarian carcinoma), HeLa (cervix adenocarcinoma), MCF-7 (breast adenocarcinoma), SAOS-2 (osteosarcoma) and MRC-5 (nontumor lung fibroblasts). […] No toxicity is valuable information, especially for compound 18, as it is a potent inhibitor of hAChE and hBChE.[27]
(§1) Selected human tumor and nontumor cell lines Jurkat (acute T-cell leukemia), MOLT-4 (acute lymphoblastic leukemia), A549 (lung carcinoma), HT-29 (colorectal adenocarcinoma), PANC-1 (pancreas epithelioid carcinoma), A2780 (ovarian carcinoma), HeLa (cervix adenocarcinoma), MCF-7 (breast adenocarcinoma), SAOS-2 (osteosarcoma) and MRC-5 (nontumor lung fibroblasts) were purchased from European Collection of Authenticated Cell Cultures (ECACC, Salisbury, UK) and cultured according to the provider’s culture method guidelines. All cell lines were maintained at 37 °C in a humidified 5% carbon dioxide and 95% air incubator. The cells in low passage number (nontumor primary cell line MRC-5 was used for a maximum of 10 passages and cancer cell lines were used for a maximum of 20 passages) and in an exponential growth phase were used for this study.
(§2) Each cell line was seeded at a previously established optimal density (1 × 10^3 to 50 × 10^3 cells per well) in a 96-well plate (TPP, Trasadingen, Switzerland) and cells were allowed to settle overnight. During screening tests for cytotoxicity, cells were treated with alkaloids at a final concentration of 10 μM for 48 h. Doxorubicin (Sigma-Aldrich, St. Louis, USA), at a concentration of 1 μM, was used as a positive control. At the end of the culture period, the WST-1 proliferation assay (Roche, Basel, Switzerland) was performed according to the manufacturer’s protocol. The absorbance was determined using a Tecan Spark microplate reader (Tecan, Männedorf, Switzerland). Each value is the mean of three independent experiments and represents the percentage of the proliferation of control, nontreated cells (100%). The growth percent (GP) value as the mean of the proliferation decrease was calculated for each cell line and derivative tested.

A further experiment has as its target T1, hBChE (Homo sapiens, UniProt P06276).
T1 construct: purchased University Hradec Kralove, Department of Chemistry, Faculty of Science
In words: biochemical. Type of experiment: biochemical. The note with it: recombinant BChE, Ellman, 37 °C. Here is the method: (§3) The hAChE and hBChE activities were determined using a modified method of Ellman, as described by Hrabinova and co-workers against recombinant AChE and recombinant BChE (purchased from University Hradec Kralove, Department of Chemistry, Faculty of Science).[43] Other used chemicals were phosphate buffer solution (PBS, pH = 7.4), 5,5′-dithio-bis(2-nitrobenzoic) acid (Ellman’s reagent, DTNB), acetylthiocholine iodide (ATChI), butyrylthiocholine iodide (BTChI), and dimethyl sulfoxide (DMSO) (all chemicals were purchased from Sigma-Aldrich, Prague, Czech Republic).
(§4) Briefly, 8.3 μL of the corresponding enzyme, 283 μL of 5 mM DTNB, and 8.3 μL of the sample dilution in DMSO in different concentrations were added to the microplate. These solutions were incubated for 5 min at 37 °C. Then, 33.3 μL of 10 mM substrate (ATChI or BTChI) was added to initiate the reaction, and the whole reaction mixture was incubated for 2 min at 37 °C. […] This difference after 1 min was used to calculate the percentage of inhibitory potential of the given derivative. Each measurement was repeated three times for every concentration of the compound. 8.3 μL DMSO was used as a blank. The % inhibition was calculated according to the following formula: [drawing 3] where ΔABl is the increase of absorbance of the blank sample and ΔASa is the increase of absorbance of the measured sample.

In the next experiment the target is T2, hAChE (Homo sapiens, UniProt P22303).
T2 construct: purchased University Hradec Kralove, Department of Chemistry, Faculty of Science
T2 sequence (P22303 32-614): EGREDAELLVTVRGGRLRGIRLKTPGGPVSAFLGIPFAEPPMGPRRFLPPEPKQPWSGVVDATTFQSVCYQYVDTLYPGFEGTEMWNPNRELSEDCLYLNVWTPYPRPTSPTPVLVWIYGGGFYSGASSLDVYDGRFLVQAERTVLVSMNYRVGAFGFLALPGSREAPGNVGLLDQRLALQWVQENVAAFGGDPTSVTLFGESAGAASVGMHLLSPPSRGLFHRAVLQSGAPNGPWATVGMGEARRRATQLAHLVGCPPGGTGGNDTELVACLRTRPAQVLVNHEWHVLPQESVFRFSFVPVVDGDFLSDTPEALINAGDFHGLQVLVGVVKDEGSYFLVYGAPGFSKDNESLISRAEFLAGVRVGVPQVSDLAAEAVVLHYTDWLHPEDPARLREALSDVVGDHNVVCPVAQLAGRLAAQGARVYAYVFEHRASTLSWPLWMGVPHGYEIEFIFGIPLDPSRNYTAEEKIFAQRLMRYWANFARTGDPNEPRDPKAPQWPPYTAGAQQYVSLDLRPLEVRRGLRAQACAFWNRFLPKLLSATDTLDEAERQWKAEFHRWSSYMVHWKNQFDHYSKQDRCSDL
In words: biochemical. It counts as biochemical. Conditions: recombinant AChE, Ellman, 37 °C. Here is the method: as §3, §4
A general note: DTNB colorimetry detects thiols as they appear.

In experiment [2] the test system is MOLT-4 (acute lymphoblastic leukemia). In words: WST-1 cell proliferation assay, cytotoxicity screening. Type of experiment: cell-based, human. The note with it: Homo sapiens, read-out: growth percent (GP) MOLT-4.
Excerpt: as §1, with “All cell lines were maintained at 37 °C in a humidified 5% carbon dioxide and 95% air incubator.” left out
as §2
(In general: Formazan colour is commonly taken as a measure of viable cells.)

Experiment [3] concerns MCF-7 (breast adenocarcinoma). The description is as above. Conditions: Homo sapiens, read-out: growth percent (GP) MCF-7. It counts as cell-based, human.
Excerpt: as §1, with “All cell lines were maintained at 37 °C in a humidified 5% carbon dioxide and 95% air incubator.” left out
as §2

For experiment [4], the system named is HeLa (cervix adenocarcinoma). The description is as above. It counts as cell-based. Conditions: Homo sapiens, 48 h, read-out: growth percent (GP) HeLa.
Excerpt: as §1, with “All cell lines were maintained at 37 °C in a humidified 5% carbon dioxide and 95% air incubator.” left out
as §2

In the next experiment the test system is A549 (lung carcinoma). The description is as above. Type of experiment: cell-based. The note with it: Homo sapiens, read-out: growth percent (GP) A549.
Excerpt: as §1, with “All cell lines were maintained at 37 °C in a humidified 5% carbon dioxide and 95% air incubator.” left out
as §2

The subject of experiment [5] is PANC-1 (pancreas epithelioid carcinoma). The description is as above. Type of experiment: cell-based. Conditions: Homo sapiens, read-out: growth percent (GP) PANC-1.
Excerpt: as §1, with “All cell lines were maintained at 37 °C in a humidified 5% carbon dioxide and 95% air incubator.” left out
as §2

The test system of a further experiment is SAOS-2 (osteosarcoma). The description is as above. Conditions: Homo sapiens, read-out: growth percent (GP) SAOS-2. It counts as cell-based.
Excerpt: as §1, with “All cell lines were maintained at 37 °C in a humidified 5% carbon dioxide and 95% air incubator.” left out
as §2

For experiment [6], the system named is MRC-5 (nontumor lung fibroblasts). Described as above. Type of experiment: cell-based. Conditions: Homo sapiens, read-out: growth percent (GP) MRC-5.
Excerpt: as §1, with “All cell lines were maintained at 37 °C in a humidified 5% carbon dioxide and 95% air incubator.” left out
as §2

Experiment [7] concerns HT-29 (colorectal adenocarcinoma). Described as above. It counts as cell-based. The note with it: Homo sapiens, read-out: growth percent (GP) HT-29.
Excerpt: as §1, with “All cell lines were maintained at 37 °C in a humidified 5% carbon dioxide and 95% air incubator.” left out
as §2

Experiment [8] deals with A2780 (ovarian carcinoma). The description is as above. It counts as cell-based. The note with it: Homo sapiens, read-out: growth percent (GP) A2780.
Excerpt: as §1, with “All cell lines were maintained at 37 °C in a humidified 5% carbon dioxide and 95% air incubator.” left out
as §2

Experiment [9] deals with Jurkat (acute T-cell leukemia). Described as above. Type of experiment: cell-based. The note with it: Homo sapiens, 48 h, read-out: growth percent (GP) Jurkat.
Excerpt: as §1, with “All cell lines were maintained at 37 °C in a humidified 5% carbon dioxide and 95% air incubator.” left out
as §2

The mark [10] stands for this setting: 10 μM single dose, 48-h interval, all tested cell lines.
The mark [11] stands for this setting: MOLT-4, c = 10 μM, 48 h, % of proliferation of nontreated control.
Setting [12] is: MCF7, c = 10 μM, 48 h, % of proliferation of nontreated control.
Where [13] appears, read: c = 10 μM, % of proliferation of nontreated control.
The mark [14] stands for this setting: A549, c = 10 μM, 48 h, % of proliferation of nontreated control.
[15] abbreviates: PANC-1, c = 10 μM, 48 h, % of proliferation of nontreated control.
Where [16] appears, read: SAOS-2, c = 10 μM, 48 h, % of proliferation of nontreated control.
The mark [17] stands for this setting: MRC5, c = 10 μM, 48 h, % of proliferation of nontreated control.
[18] abbreviates: HT-29, c = 10 μM, 48 h, % of proliferation of nontreated control.
[19] abbreviates: A2780, c = 10 μM, 48 h, % of proliferation of nontreated control.

T1 sequence (P06276 29-602): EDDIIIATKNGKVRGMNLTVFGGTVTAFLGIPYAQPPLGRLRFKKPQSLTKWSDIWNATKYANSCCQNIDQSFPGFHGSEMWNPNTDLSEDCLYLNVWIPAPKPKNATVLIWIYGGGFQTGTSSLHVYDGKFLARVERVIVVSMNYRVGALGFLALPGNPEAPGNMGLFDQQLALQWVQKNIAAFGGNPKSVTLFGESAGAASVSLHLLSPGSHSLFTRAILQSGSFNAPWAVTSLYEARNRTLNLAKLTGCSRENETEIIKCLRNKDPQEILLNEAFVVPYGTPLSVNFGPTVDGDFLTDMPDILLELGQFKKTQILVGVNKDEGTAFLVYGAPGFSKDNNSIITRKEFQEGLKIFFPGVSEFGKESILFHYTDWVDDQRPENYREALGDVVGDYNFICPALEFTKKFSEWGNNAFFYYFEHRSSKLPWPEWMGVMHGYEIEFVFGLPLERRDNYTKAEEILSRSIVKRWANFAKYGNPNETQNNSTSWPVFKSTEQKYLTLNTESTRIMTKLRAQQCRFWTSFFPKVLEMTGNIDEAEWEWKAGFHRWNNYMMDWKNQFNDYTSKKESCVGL

For the molecule `COc1cc2c(cc1OC)[C@@]13C=C[C@@H](OC)C[C@@H]1N(C2)C[C@@H]3O` [Compound 1, zephycitrine], the activity at 10 µM in experiment [1] (setting [10]) was greater than 50%; in experiment [2] (setting [11]), 99%; in experiment [3] (setting [12]), 106%; in experiment [4] (setting [13]) it was 97%; in the experiment with A549 (lung carcinoma) (setting [14]), 100%; in [5] (setting [15]) it was 102%. In addition, the activity at 10 µM in the experiment on SAOS-2 (osteosarcoma) (setting [16]) came out at 101%; in experiment [6] (setting [17]), 107%; in [7] (setting [18]), 101%; in experiment [8] (setting [19]), 98%; in experiment [9] (setting [13]), 111%. The IC50 on hBChE and at hAChE was greater than 100 µM throughout.
As for `COc1cc2c(cc1OC)[C@@H]1[C@H](O)[C@@H](OC)[C@H](O)C3=CCN(C2=O)[C@H]31` [Compound 2, 6-oxonarcissidine], the IC50 at hBChE and on hAChE was greater than 100 µM throughout.
With `CCO[C@H]1c2cc(OC)c(OC)c(O)c2[C@@]23CC[C@H](OC)C[C@@H]2N1CC3` [Compound 3, 6-O-ethylzephyranine F], the activity at 10 µM is greater than 50% in experiment [1] (48 h); 101% in experiment [2] (MOLT-4, 48 h); 97% in [3] (MCF7, 48 h); 108% in experiment [4]; 103% in the experiment with A549 (lung carcinoma) (A549, 48 h); 101% in [5] (PANC-1, 48 h). For the same molecule, the activity at 10 µM came to 99% in the experiment on SAOS-2 (osteosarcoma) (SAOS-2, 48 h); 104% in experiment [6] (MRC5, 48 h); 103% in [7] (HT-29, 48 h); 110% in [8] (A2780, 48 h); 108% in experiment [9]. Moreover, the IC50 at hBChE and on hAChE was greater than 100 µM throughout.
As to `CCO[C@H]1c2cc(OC)c(OC)cc2[C@@]23CC[C@H](OC)C[C@@H]2N1CC3` [Compound 4, 6-O-ethylzephyranine E], the activity at 10 µM is greater than 50% in experiment [1] (48 h); 101% in [2] (MOLT-4, 48 h); 96% in experiment [3] (MCF7, 48 h); 109% in [4]; 100% with A549 (lung carcinoma) (A549, 48 h); 88% in experiment [5] (PANC-1, 48 h). For the same molecule, the activity at 10 µM came out at 98% with SAOS-2 (osteosarcoma) (SAOS-2, 48 h); 99% in experiment [6] (MRC5, 48 h); 91% in experiment [7] (HT-29, 48 h); 85% in experiment [8] (A2780, 48 h); 90% in experiment [9]. For the same molecule, the half-inhibitory concentration (IC50) on hBChE and on hAChE was greater than 100 µM in each case.
Take `COc1cc2c(cc1OC)[C@@H]1[C@H](O)[C@@H](OC)[C@H](O)C3=CCN(C2)[C@H]31` [Compound 6, narcissidine]: the activity at 10 µM in [1] (setting [10]) is greater than 50%; in [2] (setting [11]), 101%; in experiment [3] (setting [12]), 103%; in experiment [4] (setting [13]), 123%; in the experiment with A549 (lung carcinoma) (setting [14]), 113%; in experiment [5] (setting [15]), 102%. In addition, the activity at 10 µM in the experiment with SAOS-2 (osteosarcoma) (setting [16]) worked out at 101%; in [6] (setting [17]), 101%; in experiment [7] (setting [18]), 108%; in experiment [8] (setting [19]), 101%; in [9] (setting [13]), 111%. Also, the IC50 on hBChE and at hAChE was greater than 100 µM in each case.
With `COc1cc2c(cc1OC)[C@@H]1[C@H](O)[C@@H](O)C=C3CCN(C2)[C@H]31` [Compound 24], the activity at 10 µM in experiment [1] (48 h) was greater than 50%; in experiment [2] (MOLT-4, 48 h) it was 103%; in experiment [3] (MCF7, 48 h), 104%; in experiment [4] it was 116%; in the experiment on A549 (lung carcinoma) (A549, 48 h), 104%; in experiment [5] (PANC-1, 48 h) it was 109%. Also, the activity at 10 µM in the experiment on SAOS-2 (osteosarcoma) (SAOS-2, 48 h) is 98%; in [6] (MRC5, 48 h) it was 96%; in experiment [7] (HT-29, 48 h), 114%; in experiment [8] (A2780, 48 h) it was 99%; in experiment [9], 109%.
As to `COc1cc2c(cc1O)[C@@H]1[C@H](O)[C@@H](OC)C=C3CCN(C2)[C@H]31` [Compound 25], the activity at 10 µM in [1] (setting [10]) was greater than 50%; in [2] (setting [11]), 88%; in experiment [3] (setting [12]), 102%; in experiment [4] (setting [13]), 110%; in the experiment on A549 (lung carcinoma) (setting [14]) it was 83%; in experiment [5] (setting [15]), 83%. The activity at 10 µM in the experiment with SAOS-2 (osteosarcoma) (setting [16]) was determined as 71%; in [6] (setting [17]), 92%; in experiment [7] (setting [18]), 94%; in experiment [8] (setting [19]), 125%; in experiment [9] (setting [13]) it was 91%.

One may read the IC50 as the point on the concentration scale where inhibition reaches its midpoint.
